The values below come from patent publication US6180666A, “Use of gallic acid esters to increase bioavailability of orally administered pharmaceutical compounds” (priority 1999, dated 2001).

The target of data set [1] is T1, CYP3A (Homo sapiens, UniProt P08684). The data set can be described thus: Inhibition of CYP3A-mediated nifedipine metabolism in human liver microsomes by gallic acid esters (Example 1). To be noted: for activity at 50 µM / activity at 100 µM / activity at 500 µM / activity at 10 µM / activity at 25 µM: read-out: Relative Nifedipine Oxidation Rate (± S.D.). On the procedure:
The known CYP3A substrate nifedipine (Gonzalez, F. J., et al., Human P45OPCN1: sequence, chromosome localization, and direct evidence through cDNA expression that P45OPCN1 is nifedipine oxidase, DNA, 2:79-86 (1988)) was used as a test substrate for evaluating the potential of various gallic acid esters to inhibit CYP3A metabolism in a human liver microsome study.
(§1) Microsomal pellets were prepared from the homogenate using standard differential centrifugation procedures (Guengerich, Analysis and characterization of enzymes in Principles and Methods of Toxicology, A. W. Hayes (ed.), Raven Press, New York. pp. 777-814 (1989)) and were stored at -80° C. in Tris-acetate buffer, pH 7.4, containing 20% w/v glycerol. Microsomes were diluted in 100 mM potassium phosphate buffer, pH 7.4, for use in metabolic incubations. Microsomal protein and CYP content of the human liver microsomes were determined using methods of Bradford (Bradford, M. M. A rapid and sensitive method for the quantitation of microgram quantities of protein utilizing the principles of protein-dye binding. Anal. Biochem. 72:248-254 (1976)) and Omura and Sato (Omura, T. et. al. The carbon monoxide-binding pigment of liver microsomes II. Solubilization, purification and properties. J. Biol. Chem. 239:2370-2378 (1964)), respectively.
In the experiments, 100 μM nifedipine and either 5 μl of a solution of one of the gallic acid esters (at a concentration indicated in Table 1) or 5 μl of solvent alone (control) were preincubated along with 0.1 mg/ml of the human liver microsomal proteins and 1 mM diethylenetriarninepentaacetic acid (DETAPAC) in 100 mM phosphate buffer, pH 7.4, for 5 minutes at 37°0 C. Metabolic reactions were started by addition of reduced β-nicotinamide adenine dinucleotide phosphate (NADPH) to give a final concentration of 1 mM and a final volume of 0.5 ml. Metabolic reactions were stopped after 3 minutes by vortex mixing with 0.2 ml of an extraction solvent of (94:6) acetonitrile:glacial acetic acid. Protein was precipitated by centrifugation (3000 rpm×10 minutes) and supernatants were analyzed for nifedipine and its oxidation product 2,6-dimethyl-4-(2-nitrophenyl)-3,5-pyridinedicarboxylic acid dimethyl ester by High Performance Liquid Chromatography (HPLC).
All experiments were conducted in triplicate and compared to incubations carried out without NADPH or without substrate. The data are the mean±standard deviation of three measurements.
^a Substrate and inhibitor were dissolved in acetonitrile except for
lauryl gallate which required methanol as vehicle.
^b Inhibition constant Ki determinations utilized 10, 20, 50 and
100 μM nifedipine substrate concentrations and experiments were run in
duplicate. Ki values were determined by regression analysis of rate
data using SigmaPlot V4.OS software (SPSS Inc., San Rafael, California).

The target of data set [2] is T1, CYP3A. The data set can be described thus: Inhibition of CYP3A-mediated metabolism of amiodarone, buspirone and nifedipine in human liver microsomes (Example 2). On the procedure: as §1
(§2) The ability of propyl gallate at various concentrations to inhibit metabolism for three representative drugs through inhibition of the cytochrome P450 mechanism was tested. Human liver microsomes were prepared and each of three drugs, amiodarone, buspirone, or nifedipine, were incubated with the microsomes in the presence of propyl gallate or a known inhibitor of CYP3A metabolism. Metabolism in the presence of propyl gallate or known CYP3A inhibitor was compared to a control treated only with the solvent in which the inhibitor was dissolved.
(§3) Clin. Pharmacol. Ther. 64: 655-60 (1998)) by human liver microsomes was tested. The microsomes were prepared as in Example 1.
(§4) The amiodarone was present in a concentration of 100 μM, the buspirone was in a concentration of 25 μM, and the nifedipine was present in a concentration of 25 μM. The propyl gallate was tested with each of these drugs at concentrations of 25, 50, and 100 μM.
(§5) The drug and optionally the inhibitor were preincubated with the microsomes at 1 nmol CYP/ml and 1 mM DETAPAC in 100 mM phosphate buffer, pH 7.4 for 5 minutes at 37° C. After the preincubation, metabolic reactions were started by the addition of 1 mM NADPH. Samples were taken at 1, 2, and 3 minutes after the start of the reaction and analyzed by HPLC. Disappearance of substrate and/or formation of metabolite were quantitated by comparison to standard curves.
(§6) The metabolism rates (nmol/ml/min) are the mean±standard deviation of three measurements.
(§7) ^a Formation rate of N-desethylamiodarone metabolite (nmol/ml/min)
(§8) ^b Buspirone disappearance (nmol/ml/min)
(§9) ^c Formation of nifedipine oxidation product
(§10) 2,6-dimethyl-4-(2-nitrophenyl)-3,5-pyridinedicarboxylic acid, dimethyl

The test system of data set [3] is CYP3A. The description is as above. The procedure:
as §1, §2, §3, §4, §5, §6, §7, §8, §9, §10

For data set [4] the following is noted: Joint FAO/WHO Expert Committee, cited from earlier work; for temporary acceptable daily intake: 1/200 of no observed effect level, 90 day feeding studies in rats.
Where [5] appears, read: read-out: Buspirone metabolism rate, % control.
Where [6] appears, read: read-out: Nifedipine metabolism rate, % control.
Setting [7] is: inhibitor 100 μM, amiodarone 100 μM.

SMILES strings stand for the structures. Read-outs that look alike come from different tables or passages of the source.

T1 sequence (P08684 2-503 limits assumed): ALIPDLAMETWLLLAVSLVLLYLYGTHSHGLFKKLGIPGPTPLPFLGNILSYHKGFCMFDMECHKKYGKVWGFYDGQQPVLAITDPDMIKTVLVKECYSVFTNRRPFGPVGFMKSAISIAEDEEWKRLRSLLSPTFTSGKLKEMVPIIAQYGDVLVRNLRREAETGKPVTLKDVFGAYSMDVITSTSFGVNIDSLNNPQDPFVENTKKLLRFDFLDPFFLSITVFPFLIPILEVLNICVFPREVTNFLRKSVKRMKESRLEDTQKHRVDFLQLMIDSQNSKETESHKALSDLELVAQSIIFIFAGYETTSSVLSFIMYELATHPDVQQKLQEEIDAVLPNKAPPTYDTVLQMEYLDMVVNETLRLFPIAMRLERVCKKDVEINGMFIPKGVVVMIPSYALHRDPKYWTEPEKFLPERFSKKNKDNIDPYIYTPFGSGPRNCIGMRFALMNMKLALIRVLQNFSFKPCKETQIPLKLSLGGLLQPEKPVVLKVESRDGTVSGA

With `CCCOC(=O)c1cc(O)c(O)c(O)c1` [Propyl gallate, 3,4,5-trihydroxybenzoic acid, n-propyl ester], in data set [1], the affinity corresponds to a Ki of 64 ± 2 µM, the activity at 50 µM is 59%, the activity at 100 µM worked out at 34% and the activity at 500 µM stood at 6.1%. Further, in data set [2] (setting [5]), the remaining activity at 25 µM was 65%, the remaining activity at 50 µM was found to be 42% and the remaining activity at 100 µM was 29%. For the same molecule, in data set [2] (setting [6]), the remaining activity at 25 µM was 82%, the remaining activity at 50 µM stood at 54% and the remaining activity at 100 µM was found to be 33%. Further, in data set [3], the “Inhibition of CYP3A-mediated metabolism (in words)” value is given as “effective inhibitor of CYP3A-mediated metabolism”; the “Inhibition of drug metabolism compared with known CYP3A inhibitors (in words)” value was “better at inhibiting drug metabolism than the established CYP3A inhibitors diltiazem, erythromycin, and verapamil”. In data set [3] (inhibitor 25 μM, amiodarone 100 μM), the “Mean ± SD metabolism rate, amiodarone (formation rate of N-desethylamiodarone)” value (“Mean ± SD metabolism rate, amiodarone” below) was 0.94 ± 0.02 nmol/mL/min. The “Mean ± SD metabolism rate, amiodarone” value in data set [3] (inhibitor 50 μM, amiodarone 100 μM) was found to be 0.55 ± 0.02 nmol/mL/min. Further, the “Mean ± SD metabolism rate, amiodarone” value in data set [3] (setting [7]) stood at 0.32 ± 0.03 nmol/mL/min. The “Amiodarone metabolism rate, % control” value in data set [3] (microsomes, 25 µM) was found to be 49 % control. Also, the “Amiodarone metabolism rate, % control” value in data set [3] (microsomes, 50 µM) came to 28 % control. In data set [3] (microsomes, 100 µM), the “Amiodarone metabolism rate, % control” value came to 17 % control. Further, in data set [4] (1/100 of no observed effect level, 90 day feeding study in rats), the acceptable daily intake was 0 to 1.4 mg/kg/day.

`CCCCCCCCOC(=O)c1cc(O)c(O)c(O)c1` [Octyl gallate, octyl gallate]: in data set [1], the “Inhibition of CYP3A-mediated metabolism (in words)” value is listed as “especially good inhibitor of the metabolism at relatively low concentrations”, the Ki is 5.2 ± 0.2 µM, the activity at 10 µM came out at 44% and the activity at 25 µM came out at 17.5%. Besides, in data set [1], the activity at 50 µM was 4.9% and the activity at 100 µM was 1.1%. Moreover, the “temporary acceptable daily intake” value in data set [4] is on record as 0-0.1 mg/kg body weight.

Regarding `CCCCCCCCCCCCOC(=O)c1cc(O)c(O)c(O)c1` [Lauryl gallate, lauryl gallate], in data set [1], the activity at 10 µM came to 61%, the activity at 25 µM was found to be 31%, the activity at 50 µM was found to be 12.6% and the activity at 100 µM stood at 6.4%. For the same molecule, in data set [4], the “temporary acceptable daily intake” value was 0-0.05 mg/kg body weight.

Turning to `COC(=O)c1cc(O)c(O)c(O)c1` [Methyl gallate, methyl gallate], in data set [1], the activity at 100 µM is 53% and the activity at 500 µM was determined as 16%.

With `CC(=O)N1CCN(c2ccc(OCC3COC(Cn4ccnc4)(c4ccc(Cl)cc4Cl)O3)cc2)CC1` (centres unmarked) [Ketoconazole, reference compound], in data set [3] (inhibitor 1 μM, amiodarone 100 μM), the “Amiodarone metabolism rate, % control” value came to 4 % control.

In the case of `CC[C@H]1OC(=O)[C@H](C)[C@@H](O[C@H]2C[C@@](C)(OC)[C@@H](O)[C@H](C)O2)[C@H](C)[C@@H](O[C@@H]2O[C@H](C)C[C@H](N(C)C)[C@H]2O)[C@](C)(O)C[C@@H](C)C(=O)[C@H](C)[C@@H](O)[C@]1(C)O` [Erythromycin, reference compound], the “Mean ± SD metabolism rate, amiodarone” value in data set [3] (setting [7]) was determined as 0.84 ± 0.07 nmol/mL/min.
